This assay addresses T1, human OX2R (Homo sapiens, UniProt O43614).
T1 construct: expressed in transfected cells; host or cells: CHO (Chinese hamster ovary) cells, grown under G418 selection
T1 sequence (O43614 1-444): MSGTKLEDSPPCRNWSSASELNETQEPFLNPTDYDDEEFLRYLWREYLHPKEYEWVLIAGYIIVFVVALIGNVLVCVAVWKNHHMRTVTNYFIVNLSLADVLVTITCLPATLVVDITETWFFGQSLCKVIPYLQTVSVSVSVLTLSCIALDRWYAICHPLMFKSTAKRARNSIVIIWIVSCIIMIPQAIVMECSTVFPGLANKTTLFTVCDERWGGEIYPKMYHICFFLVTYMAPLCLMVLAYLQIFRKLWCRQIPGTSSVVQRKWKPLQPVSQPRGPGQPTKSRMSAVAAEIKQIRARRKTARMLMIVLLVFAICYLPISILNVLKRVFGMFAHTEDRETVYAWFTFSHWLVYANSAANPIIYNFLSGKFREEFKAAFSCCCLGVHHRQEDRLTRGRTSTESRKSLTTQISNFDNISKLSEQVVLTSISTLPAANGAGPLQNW
In words: IP-One (IPOne) orexin receptor agonist assay in CHO cells expressing human OX2R. Type of assay: cell-based. The note with it: for EC50: CHO cells expressing human OX2R, IP-One IP-1 detection, 2 hours incubation, four parameter logistic fit, read-out: OX2R Potency, EC50; for % of reference agonist maximal effect: human OX2R, percentage of sample raw value/mean max effect (reference compound at 1 uM with 100% activity). Put shortly:
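CHO cells stably expressing human OX2R were stimulated with compound (10-point ½-log dilutions) for 2 h at 37 °C. IP-1 accumulation was read by HTRF (IP-One, 665/620 nm). EC50 from a four-parameter fit; % effect relative to 1 μM reference agonist control.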

The structures appear in SMILES notation.

Turning to `CC(C)C(=O)N1CCC[C@H](c2cc[nH]n2)[C@@H]1CO[C@H]1CC[C@@H](C(C)C)CC1` (relative stereo) [Example 73, 1-((CIS)-2-((((CIS)-4-isopropylcyclohexyl)oxy)methyl)-3-(1H-pyrazol-3-yl)piperidin-1-yl)-2-methylpropan-1-one], the EC50 is 3.22 µM and the “% of reference agonist maximal effect” value is listed as 79.3%.

For the compound `COC(=O)CCOC(=O)N1CCC[C@H](c2cc[nH]n2)[C@@H]1CO[C@H]1CC[C@@H](c2ccccc2)CC1` (relative stereo) [Example 114, 3-methoxy-3-oxopropyl (CIS)-2-((((CIS)-4-phenylcyclohexyl)oxy)methyl)-3-(1H-pyrazol-3-yl)piperidine-1-carboxylate], the EC50 was 6.78 µM and the “% of reference agonist maximal effect” value is given as 80.5%.

With `Cc1c[nH]nc1[C@H]1CCCN(C(=O)OC(C)C)[C@H]1COC1CCN(c2ncccn2)CC1` (relative stereo) [Example 9, Isopropyl (CIS)-3-(4-methyl-1H-pyrazol-3-yl)-2-(((1-(pyrimidin-2-yl)piperidin-4-yl)oxy)methyl)piperidine-1-carboxylate], the half-maximal effective concentration (EC50) was 0.25 µM and the “% of reference agonist maximal effect” value is on record as 100.7%.

With `CC[C@@H](C)NC(=O)N1CCC[C@H](c2cc[nH]n2)[C@@H]1CO[C@H]1CC[C@@H](c2ccccc2)CC1` [Example 128, (CIS)-N-((R)-sec-butyl)-2-((((CIS)-4-phenylcyclohexyl)oxy)methyl)-3-(1H-pyrazol-3-yl)piperidine-1-carboxamide], the EC50 is 5.94 µM and the “% of reference agonist maximal effect” value was determined as 69.6%.

Regarding `CCNC(=O)N1CCC[C@H](c2n[nH]cc2C)[C@@H]1CO[C@H]1CC[C@@H](c2cccc(F)c2)CC1` (single isomer, unassigned) [Example 11], the EC50 was 0.0023 µM and the “% of reference agonist maximal effect” value turned out to be 100.1%.

For the compound `CC#CCOC(=O)N1CCC[C@H](c2cc[nH]n2)[C@@H]1CO[C@H]1CC[C@@H](c2ccccc2)CC1` (relative stereo) [Example 103, but-2-yn-1-yl (CIS)-2-((((CIS)-4-phenylcyclohexyl)oxy)methyl)-3-(1H-pyrazol-3-yl)piperidine-1-carboxylate], the 50% effective concentration (EC50) was 3.61 µM and the “% of reference agonist maximal effect” value came out at 73.6%.

On to `C[C@H]1C[C@H]1C(=O)N1CCC[C@H](c2cc[nH]n2)[C@@H]1COC1CCC(c2ccccc2)CC1` (stereo partly drawn) [Example 69, ((CIS)-2-methylcyclopropyl)((2R,3S)-2-((((1s,4S)-4-phenylcyclohexyl)oxy)methyl)-3-(1H-pyrazol-3-yl)piperidin-1-yl)methanone], for which the EC50 is 0.278 µM and the “% of reference agonist maximal effect” value worked out at 99.2%.

In the case of `COCC[C@H](N)C(=O)N1CCC[C@H](c2cc[nH]n2)[C@@H]1COC1CCC(C(C)C)CC1` (stereo partly drawn) [Example 72, (S)-2-amino-1-((CIS)-2-((((CIS)-4-isopropylcyclohexyl)oxy)methyl)-3-(1H-pyrazol-3-yl)piperidin-1-yl)-4-methoxybutan-1-one], the EC50 was determined as 3.11 µM and the “% of reference agonist maximal effect” value was found to be 99.5%.

In the case of `CCNC(=O)N1CCC[C@H](c2ccn(C)n2)[C@@H]1CO[C@H]1CC[C@@H](c2ccccc2)CC1` (relative stereo) [Example 27, (CIS)-N-ethyl-3-(1-methyl-1H-pyrazol-3-yl)-2-((((CIS)-4-phenylcyclohexyl)oxy)-methyl)piperidine-1-carboxamide], the half-maximal effective concentration (EC50) was 3.51 µM and the “% of reference agonist maximal effect” value is reported as 82.5%.

For `COC(=O)N1CCC[C@@H](c2n[nH]cc2C(F)F)[C@H]1CO[C@H]1CC[C@@H](c2ccccc2)CC1` [Example 56, Methyl (2S,3R)-3-(4-(difluoromethyl)-pH-pyrazol-3-yl)-2-((((CIS)-4-phenylcyclohexyl)oxy)methyl) piperidine-1-carboxylate], the EC50 amounted to 3.07 µM and the “% of reference agonist maximal effect” value stood at 66.9%.

Take `Cc1c[nH]nc1[C@H]1CCCN(C(=O)OCC(F)F)[C@H]1CO[C@H]1CC[C@@H](c2cccc(F)c2)CC1` (relative stereo) [Example 16, 2,2-difluoroethyl (CIS)-2-((((CIS)-4-(3-fluorophenyl)cyclohexyl)oxy)methyl)-3-(4-methyl-1H-pyrazol-3-yl)piperidine-1-carboxylate]: the EC50 worked out at 0.126 µM and the “% of reference agonist maximal effect” value turned out to be 99.9%.

In the case of `O=C(NCC1CCC1)N1CCC[C@H](c2cc[nH]n2)[C@@H]1CO[C@H]1CC[C@@H](c2ccccc2)CC1` (relative stereo) [Example 125, (CIS)-N-(cyclobutylmethyl)-2-((((CIS)-4-phenylcyclohexyl)oxy)methyl)-3-(1H-pyrazol-3-yl)piperidine-1-carboxamide], the concentration giving a half-maximal response (EC50) came to 0.0224 µM and the “% of reference agonist maximal effect” value is on record as 99.1%.

For the compound `COC(=O)N1CCC[C@H](c2cccc(O)n2)[C@@H]1CO[C@H]1CC[C@@H](c2ccccc2)CC1` (relative stereo) [Example 64, Methyl (CIS)-3-(6-hydroxypyridin-2-yl)-2-((((CIS)-4-phenylcyclohexyl)oxy)methyl)piperidine-1-carboxylate], the EC50 is 3.06 µM and the “% of reference agonist maximal effect” value amounted to 68.1%.

For `COC(=O)N1C[C@@H](C)C[C@H](c2ccn[nH]2)[C@@H]1CO[C@H]1CC[C@@H](c2ccccc2)CC1` (racemic) [Example 39, (+/−) methyl (2R,3S,5S)-5-methyl-2-((((CIS)-4-phenylcyclohexyl)oxy)methyl)-3-(1H-pyrazol-5-yl)piperidine-1-carboxylate], the half-maximal effective concentration (EC50) was found to be 1.98 µM and the “% of reference agonist maximal effect” value amounted to 94.8%.

Regarding `CC1(C(=O)N2CCC[C@H](c3cc[nH]n3)[C@@H]2CO[C@H]2CC[C@@H](c3ccccc3)CC2)CC1` (relative stereo) [Example 80, (1-methylcyclopropyl)((CIS)-2-((((CIS)-4-phenylcyclohexyl)oxy)methyl)-3-(1H-pyrazol-3-yl)piperidin-1-yl)methanone], the concentration for a half-maximal effect (EC50) worked out at 5.55 µM and the “% of reference agonist maximal effect” value worked out at 87.5%.

On to `Cc1cnc(COC(=O)N2CCC[C@H](c3cc[nH]n3)[C@@H]2CO[C@H]2CC[C@@H](c3ccccc3)CC2)o1` (relative stereo) [Example 109, (5-methyloxazol-2-yl)methyl (CIS)-2-((((CIS)-4-phenylcyclohexyl)oxy)methyl)-3-(1H-pyrazol-3-yl)piperidine-1-carboxylate], for which the half-maximal effective concentration (EC50) came to 5.56 µM and the “% of reference agonist maximal effect” value was determined as 78.6%.

For the compound `CC(C)[C@H]1CC[C@@H](OC[C@H]2[C@@H](c3cc[nH]n3)CCCN2C(=O)NCC2CCCCC2)CC1` (relative stereo) [Example 123, (CIS)-N-(cyclohexylmethyl)-2-((((CIS)-4-isopropylcyclohexyl)oxy)methyl)-3-(1H-pyrazol-3-yl)piperidine-1-carboxamide], the EC50 is 6.73 µM and the “% of reference agonist maximal effect” value is listed as 87.9%.

In the case of `CC1(C)C[C@H]1C(=O)N1CCC[C@H](c2cc[nH]n2)[C@@H]1COC1CCC(c2ccccc2)CC1` (relative stereo) [Example 91, ((R)-2,2-dimethylcyclopropyl)((CIS)-2-((((CIS)-4-phenylcyclohexyl)oxy)methyl)-3-(1H-pyrazol-3-yl)piperidin-1-yl)methanone], the EC50 was 6.7 µM and the “% of reference agonist maximal effect” value was 81%.

For the compound `CCNC(=O)N1CCC[C@H](c2ccn[nH]2)[C@@H]1CO[C@H]1CC[C@@H](c2ccccc2)CC1` (single isomer, unassigned) [Example 1, (CIS)-N-ethyl-2-((((CIS)-4-phenylcyclohexyl)oxy)methyl)-3-(1H-pyrazol-5-yl)piperidine-1-carboxamide], the 50% effective concentration (EC50) turned out to be 0.0673 µM and the “% of reference agonist maximal effect” value worked out at 102.6%.

With `Cc1cn[nH]c1[C@H]1CCCN(C(=O)OCC(F)F)[C@H]1CO[C@H]1CC[C@@H](c2ccccc2)CC1` (relative stereo) [Example 24, 2,2-difluoroethyl (CIS)-3-(4-methyl-1H-pyrazol-5-yl)-2-((((CIS)-4-phenylcyclohexyl)oxy)methyl)piperidine-1-carboxylate], the EC50 amounted to 0.348 µM and the “% of reference agonist maximal effect” value is reported as 100.4%.

On to `COC(=O)N1CCC[C@H](c2n[nH]cc2C(F)F)[C@@H]1CO[C@H]1CC[C@@H](c2ccccc2)CC1` (single isomer, unassigned) [Example 55], for which the EC50 worked out at 0.0975 µM and the “% of reference agonist maximal effect” value amounted to 100.8%.

On to `CCC[C@](C)(F)C(=O)N1CCC[C@H](c2cc[nH]n2)[C@@H]1COC1CCC(C(C)C)CC1` (stereo partly drawn) [Example 89, (S)-2-fluoro-1-((CIS)-2-((((CIS)-4-isopropylcyclohexyl)oxy)methyl)-3-(1H-pyrazol-3-yl)piperidin-1-yl)-2-methylpentan-1-one], for which the EC50 came out at 9.77 µM and the “% of reference agonist maximal effect” value worked out at 55.8%.

Turning to `COC(=O)N1CCC[C@@H](c2n[nH]cc2C#N)[C@H]1CO[C@H]1CC[C@@H](c2ccccc2)CC1` (single isomer, unassigned) [Example 52], the 50% effective concentration (EC50) is greater than 10 µM and the “% of reference agonist maximal effect” value turned out to be 0%.
